Results published in publication PMC6274095 (Molecules, 2016).

Legend:
HEK293 cells = assay: HEK293 cell viability, Cell Titer-Glo assay; format: cell-based; conditions: 24 h
Procedure: In order to rule out the possibilities of false positives, we tested whether cardamonin induced cytotoxicity in HEK293 cells. The cells were seeded into 96-well plate and incubated in the presence or absence of cardamonin. HEK293 cells were incubated with cardamonin for 24 h. […] HEK293 cell viability was determined based on quantification of ATP using Cell Titer-Glo® luminescent Assay kit (Promega, Madison, WI, USA), which signals the presence of metabolically-active cells. Briefly, HEK293 cells were seeded into 96-well plates at a cell density of 3.5 × 10^4 cells per well, the plates were kept at 37 °C with 5% CO2 overnight. On the following day, cardamonin was added to the cells from a top concentration of 90 μΜ. The cells treated in the absence of the test compound were the negative control. After incubated for 24 h, Cell Titer-Glo reagent was added to the cells and Luminescence was acquired on EnVision™ 2100 Multilabel Reader (PerkinElmer, Santa Clara, CA, USA).

TRPV4 ion channel = target: T1, TRPV4 ion channel (Homo sapiens, UniProt Q9HBA0); assay: Calcium mobilization assay in HEK293/TRPV4 cells (GSK1016790A-stimulated); format: cell-based
T1 construct: host or cells: HEK293
Procedure: TRPV4 is another critical TRP ion channel that plays a role in thermal and mechanical hyperalgesia. TRPV4 shares similarity with TRPA1 [24, 25]. […] Firstly, the activating effect of the TRPV4 agonist GSK1016790A was tested. […] Thereafter, cardamonin was incubated with HEK293/TRPV4 cells at 90 μM, 30 μM, and 10 μM prior to 83 nM GSK1016790A stimulation. HEK293/TRPV4 cells treated in the absence of the test compound was the negative control and 330 μM ruthenium red was performed as the positive control.
(§1) Recombinant HEK293/TRPA1, HEK293/TRPV1, and HEK293/TRPV4 cell lines were generated by HD Bioscience Co. Ltd (Shanghai, China) following standard procedures as reported previously. HEK293/TRPA1 and HEK293/TRPV4 cells were cultured in complete DMEM medium with 100 μg/mL hygromycin B, 50 U/mL penicillin, and 100 μg/mL streptomycin. HEK293/TRPV1 cells were cultured with 350 μg/mL zeocin and 5 μg/mL blasticidin in complete DMEM culture medium.
(§2) Calcium influx upon TRPA1 activation by agonist stimulation was measured using calcium mobilization assay as reported previously. Briefly, cells were plated into 96-well microplates (matrigel coated) at a density of 3.5 × 10^4 cells per well. The plates were incubated at 37 °C with 5% CO2 overnight to allow the cells to recover. On the following day, replace cell culture medium with loading buffer containing Fluo-4 AM (MD, CA, USA), kept the plate at 37 °C for 30 min. Test compound was added to cells 10 min prior to the onset of TRAP1 agonist cinnamaldehyde, TRPV1 agonist 2APB, or TRPV4 agonist GSK1016790A. The calcium signal was captured with Flexstation II reader (MD, CA, USA) at 37 °C for TRPA1 and TRPV1 activation. The reader chamber was set at 24 °C for TRPV4 activation.

[1] = tested on: neonatal rat cardiomyocytes (CMs); assay: Cardiotoxicity evaluation, xCELLigence RTCA cardio impedance; format: cell-based; conditions: 10 μM
Procedure: To assess the potential adverse risk in cardiomyocytes, we administrated neonatal rat cardiomyocytes (CMs) with cardamonin, tested at 10 μM (22-fold of the IC50 value). Amiodarone (10 μM), an antiarrhythmic drug that delays cardiac repolarization through inhibiting hERG potassium channels [31], was performed as a positive cardio toxic control [32]. […] Amplitude represented the height of the print. […] Cell index represented cell number and viability. […] Cardiotoxicity test of cardamonin was performed with neonatal rat cardiomyocytes that obtained from 24 h Sprague-Dawley rats [47]. Compound treatment and cardiomyocytes impedance profiles were monitored as previously reported by Yu et al. [48]. Briefly, CMs cells were seeded into cardio E-Plate 96 that pre-coated with matrigel. Thereafter, cell culture medium was refreshed every day until CMs presented stable beating patterns. For compound treatment, 10× chemical dose solutions were prepared and added to the cells. The cell impedance was captured using xCELLigence RTCA cardio instrument.

TRPV1 channel = target: T2, TRPV1 channel (Homo sapiens, UniProt Q8NER1); assay: Calcium mobilization assay in HEK293/TRPV1 cells (2APB-stimulated); format: cell-based
T2 construct: host or cells: HEK293
Procedure: as §1, §2

hTRPA1 cation channel [2] = target: T3, hTRPA1 cation channel (Homo sapiens, UniProt O75762); assay: Calcium mobilization assay in HEK293/TRPA1 cells (cinnamaldehyde-stimulated); format: cell-based
T3 construct: host or cells: HEK293
Procedure: To discover a novel TRPA1 antagonist, a small library containing 156 natural chemicals were evaluated for their inhibitory effects on the TRPA1 ion channel at 10 μM (Figure 1A). The compound list was released previously. The cells were pre-incubated with cinnamaldehyde (CA) by its EC80 (90 μΜ) for 10 min and then treated with tested compounds. […] The time-course profile of the calcium signal was recorded (Figure 1B) and the peak value was used for determination of the maximum calcium mobilization.
as §1, §2

hTRPA1 cation channel [3] = target: T3, hTRPA1 cation channel; conditions: HEK293/TRPA1 activation; cited from earlier work

T3 sequence (O75762 whole entry): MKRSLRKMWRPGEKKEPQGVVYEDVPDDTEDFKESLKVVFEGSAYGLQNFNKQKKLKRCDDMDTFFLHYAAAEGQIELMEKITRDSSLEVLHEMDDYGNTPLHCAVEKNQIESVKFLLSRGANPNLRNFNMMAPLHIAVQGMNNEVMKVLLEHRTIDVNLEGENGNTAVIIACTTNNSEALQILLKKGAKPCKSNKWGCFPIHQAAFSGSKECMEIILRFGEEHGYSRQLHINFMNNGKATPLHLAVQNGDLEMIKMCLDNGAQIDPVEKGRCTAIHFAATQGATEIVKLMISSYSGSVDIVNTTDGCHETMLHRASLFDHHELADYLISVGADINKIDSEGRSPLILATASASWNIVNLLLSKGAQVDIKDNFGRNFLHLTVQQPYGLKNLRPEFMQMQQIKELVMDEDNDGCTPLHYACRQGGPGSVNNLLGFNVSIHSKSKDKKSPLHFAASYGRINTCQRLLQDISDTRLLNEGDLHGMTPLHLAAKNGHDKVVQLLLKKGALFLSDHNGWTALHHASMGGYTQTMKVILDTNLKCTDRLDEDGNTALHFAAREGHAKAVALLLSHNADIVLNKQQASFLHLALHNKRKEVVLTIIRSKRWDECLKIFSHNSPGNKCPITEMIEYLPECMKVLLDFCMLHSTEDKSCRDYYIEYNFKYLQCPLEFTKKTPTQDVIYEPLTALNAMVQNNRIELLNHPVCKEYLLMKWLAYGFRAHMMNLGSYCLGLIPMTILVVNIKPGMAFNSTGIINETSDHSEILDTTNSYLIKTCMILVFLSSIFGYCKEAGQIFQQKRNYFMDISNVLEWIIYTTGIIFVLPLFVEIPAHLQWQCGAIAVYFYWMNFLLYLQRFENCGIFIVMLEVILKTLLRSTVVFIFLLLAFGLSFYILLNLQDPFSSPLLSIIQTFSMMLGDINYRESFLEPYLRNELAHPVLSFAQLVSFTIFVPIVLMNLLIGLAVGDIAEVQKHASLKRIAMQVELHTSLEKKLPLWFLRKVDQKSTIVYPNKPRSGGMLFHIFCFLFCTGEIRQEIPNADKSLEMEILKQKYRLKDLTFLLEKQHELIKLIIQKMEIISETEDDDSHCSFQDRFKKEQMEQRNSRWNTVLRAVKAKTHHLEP
T1 sequence (Q9HBA0 whole entry): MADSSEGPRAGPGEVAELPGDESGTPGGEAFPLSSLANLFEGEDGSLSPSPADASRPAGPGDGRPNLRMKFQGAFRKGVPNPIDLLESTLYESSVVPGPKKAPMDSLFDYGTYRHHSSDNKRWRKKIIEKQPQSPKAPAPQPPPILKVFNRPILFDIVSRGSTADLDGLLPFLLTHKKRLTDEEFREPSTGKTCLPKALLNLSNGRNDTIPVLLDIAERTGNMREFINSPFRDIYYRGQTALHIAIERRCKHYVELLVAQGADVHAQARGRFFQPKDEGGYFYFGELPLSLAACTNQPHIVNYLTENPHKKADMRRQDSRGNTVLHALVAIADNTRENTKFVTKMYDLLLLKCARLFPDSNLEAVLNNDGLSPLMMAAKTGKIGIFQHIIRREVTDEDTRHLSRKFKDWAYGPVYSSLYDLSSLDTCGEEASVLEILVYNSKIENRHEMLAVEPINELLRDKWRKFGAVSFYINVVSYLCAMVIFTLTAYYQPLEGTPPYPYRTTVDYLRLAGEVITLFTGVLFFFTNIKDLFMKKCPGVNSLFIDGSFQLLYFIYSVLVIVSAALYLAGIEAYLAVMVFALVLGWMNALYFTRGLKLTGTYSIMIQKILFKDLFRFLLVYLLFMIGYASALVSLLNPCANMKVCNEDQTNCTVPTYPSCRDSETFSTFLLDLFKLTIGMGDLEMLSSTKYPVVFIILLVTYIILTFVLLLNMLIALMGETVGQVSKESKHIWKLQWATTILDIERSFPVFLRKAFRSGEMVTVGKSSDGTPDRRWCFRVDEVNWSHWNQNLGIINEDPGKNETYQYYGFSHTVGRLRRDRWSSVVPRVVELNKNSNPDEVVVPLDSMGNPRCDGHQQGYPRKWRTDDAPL
T2 sequence (Q8NER1 whole entry): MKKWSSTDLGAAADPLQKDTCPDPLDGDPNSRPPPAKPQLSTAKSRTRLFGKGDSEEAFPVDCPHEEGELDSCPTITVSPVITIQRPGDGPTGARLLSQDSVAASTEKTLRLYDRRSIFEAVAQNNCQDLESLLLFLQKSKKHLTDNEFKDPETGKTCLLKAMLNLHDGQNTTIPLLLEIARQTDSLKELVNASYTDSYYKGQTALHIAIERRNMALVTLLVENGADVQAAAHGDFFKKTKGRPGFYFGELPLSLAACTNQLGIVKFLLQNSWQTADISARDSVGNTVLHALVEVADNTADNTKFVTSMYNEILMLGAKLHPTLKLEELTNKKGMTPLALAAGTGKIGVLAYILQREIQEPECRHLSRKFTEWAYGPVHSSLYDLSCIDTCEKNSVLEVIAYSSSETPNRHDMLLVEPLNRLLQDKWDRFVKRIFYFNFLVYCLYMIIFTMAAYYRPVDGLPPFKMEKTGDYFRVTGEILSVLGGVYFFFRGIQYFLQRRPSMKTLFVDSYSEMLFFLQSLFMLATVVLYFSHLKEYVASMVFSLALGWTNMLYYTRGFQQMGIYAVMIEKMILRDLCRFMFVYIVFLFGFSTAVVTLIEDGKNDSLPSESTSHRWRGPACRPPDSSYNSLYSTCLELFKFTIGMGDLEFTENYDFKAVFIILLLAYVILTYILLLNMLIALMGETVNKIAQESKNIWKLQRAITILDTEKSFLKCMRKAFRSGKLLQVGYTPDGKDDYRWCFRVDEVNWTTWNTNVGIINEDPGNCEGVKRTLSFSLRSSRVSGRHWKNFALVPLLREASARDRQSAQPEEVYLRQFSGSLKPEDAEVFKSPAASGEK

COc1cc(O)cc(O)c1C(=O)/C=C/c1ccccc1 [cardamonin]
Cytotoxicity in HEK293 cells (HEK293 cells; 90 μΜ (top concentration)): slight cell injury
Cytotoxicity in HEK293 cells (HEK293 cells; within 30 μΜ, p > 0.05): no detectable cytotoxicity
Inhibition of TRPV4 calcium signal (TRPV4 ion channel; 90 μM, 30 μM and 10 μM prior to 83 nM GSK1016790A): No detectable inhibiting effect
Amplitude profile of CMs [1]: in accordance with vehicle control
CMs' beating pattern (real-time beating impedance) [1]: did not induce dramatic alteration
CMs' beating rate [1]: not
Cell index (CMs cell number and cell viability) [1]: did not significantly decrease
Inhibition of calcium influx in HEK293/TRPV1 cells (TRPV1 channel; 90 μΜ, 30 μΜ and 10 μΜ, pre-treated 10 min, 1 mM 2APB, 37 °C): failed to inhibit calcium influx
IC50 (hTRPA1 cation channel [2]): 0.454 µM
Inhibition of CA induced HEK293/TRPA1 activation (screen) (hTRPA1 cation channel [2]; 10 μM compound, 90 μM cinnamaldehyde): significantly inhibited
Blockage of TRPA1 activity (hTRPA1 cation channel [2]; at 90 μM compound): Full blockage
Activation of TRPA1 by compound alone (hTRPA1 cation channel [2]; without agonist): could not activate TRPA1 alone

Cl.Cl.Cl.Cl.Cl.Cl.N.N.N.N.N.N.N.N.N.N.N.N.N.N.[O-2].[O-2].[Ru+3].[Ru+3].[Ru+4] [ruthenium red, reference compound]
IC50 (TRPV4 ion channel; HEK293/TRPV4, added 10 min prior to 83 nM GSK1016790A, 24 °C, read-out: IC50, blocking TRPV4 activation): 29.8 µM
IC50 (TRPV1 channel; HEK293/TRPV1, 1 mM 2APB stimulation, read-out: IC50, inhibition of TRPV1 activation): 207 µM

CC(C)C[C@H](NC(=O)c1cc2ccccc2s1)C(=O)N1CCN(C(=O)[C@H](CO)NS(=O)(=O)c2ccc(Cl)cc2Cl)CC1 [GSK1016790A]
EC50 (TRPV4 ion channel): 0.0092 µM

CCCCc1oc2ccccc2c1C(=O)c1cc(I)c(OCCN(CC)CC)c(I)c1 [amiodarone, reference compound]
CMs' beating rate [1]: significantly decreased

O=C/C=C/c1ccccc1 [cinnamaldehyde]
EC80 of TRPA1 agonist (hTRPA1 cation channel [3]): 90 μΜ
